The subject of one assay is TNFα-stimulated PMN. Put plainly: TNF-stimulated PMN adherence to a fibrinogen-coated surface. It is filed as cell-based, human. As for the experimental part: PMN adherence to fibrinogen was measured as follows as adapted from Hanlon, J. Leukocyte Biol., 50, 43 (1991). Twenty-four well flat-bottomed tissue culture plates were incubated (37° C.) overnight with 0.5 ml of fibrinogen (5 mg/ml) dissolved in 1.5% NaHCO3. The plates were emptied and each well washed 2× with 1 ml of normal saline. The wells were then filled with 1 ml of HBSS-0.1% human serum albumin containing PMN (1×10^6/ml) with and without rhTNFα (1 U/ml), adenosine deaminase (ADA) (1 U/ML), WRC-0474[SHA 211] (10 nM), CGS21680 (30 nM), adenosine (100 nM) and rolipram (100 nM). The plates were incubated for 90 minutes at 37° C. in 5% CO2. Following incubation the tissue culture wells were washed free of non-adherent cells with normal saline. The adherent monolayer of PMN was lysed with 0.1% triton-X, the amount of lactic dehydrogenase (LDH) released from the monolayer assayed (LDH kit, Sigma Co., St. Louis, Mo.), and compared to a standard curve relating the LDH content to PMN numbers.

Assay [1] relates to TNFα-stimulated adherent human neutrophils. Put plainly: TNFα-stimulated superoxide release of PMN adherent to fibrinogen coated surface. The assay is classed as cell-based. Conditions: for superoxide release of TNFα-stimulated adherent PMN: 300 nM combined with rolipram (100 nM), p<0.05, FIG. 5. The procedure:
TNFα-stimulated superoxide release of PMN adherent to a matrix protein (fibrinogen) coated surface. Human PMN (1×10^6/ml) from Ficoll-Hypaque separation were incubated for 90 minutes in 1 ml of Hanks balanced salt solution containing 0.1% human serum albumin, cytochrome c (120 μM), and catalase (0.062 mg/ml) in the presence and absence of rhTNF (1 U/ml), WRC-0474[SHA 211] (10 nM) and rolipram (100 nM) in a tissue culture well which had been coated overnight with human fibrinogen. SOD (200 U/ml) was added to matched samples. The supernatants were iced and centrifuged (2000 g×10 minutes) to remove any remaining suspended cells, and the optical density of the supernatants were read at 550 nm against the matched SOD samples, and the nmoles of SOD-inhibitable superoxide released in 90 minutes were calculated.
Additional effects of adenosine A2A agonists on adherent human neutropbil oxidative activity. The bioactivity of test compounds WRC-0474[SHA 211], WRC-0470, WRC-0090 and WRC-0018 were evaluated according to the following method modified from Sullivan, G. W. et al., Int. J. Immunopharmacol, 17, 793-803 (1995). Neutrophils (1×10^6/ml from Ficoll-Hypaque separation were incubated for 90 minutes in 1 ml of Hanks balanced salt solution containing 0.1% human serum albumin, cytochrome c (120 μM) and catalase (0.062 mg/ml in the presence and absence of rhTNFα (1 U/ml), WRC-0474[SHA 211], WRC-0470, WRC-0090 and WRC-0018 (3-300 nM), and rolipram (100 nM) in a tissue culture well which had been coated overnight with human fibrinogen. The supernatants were iced and centrifuged (200 g×10 min) to remove any remaining suspended cells, and the optical densities of the supernatants were read at 550 nm against matched superoxide dismutase (SOD) (200 U/ml) samples. The nmoles of SOD=inhabitable superoxide released in 90 min were calculated.

For assay [2], the system named is TNFα-stimulated adherent neutrophil. The experiment in a line: PMN degranulation (adherent cells), lysozyme release. It is filed as cell-based, human. The following applies: WRC-0470 300 nM with rolipram 300 nM; P=0.027. As for the experimental part: PMN degranulation (adherent cells). The following methods were adapted from Sullivan, G. W. and G. L. Mandell, Infect. Inumun., 30, 272-280 (1980). […] The supernatant fluids with any suspended neutrophils were harvested following incubation, centrifuged (2000 ×g for 10 min) to remove any suspended cells and the cell-free supernatants frozen. Release of lysozyme, a component of neutrophil primary and secondary granules was assayed. Lysis of a suspension of Micrococcus lysodeikticus by the “cell-free supernatant” was measured by spectrophotometric analysis ([…]) to determine the amount of release of granule contents to the surrounding medium.

In assay [3] the test system is neutrophils in whole blood. Put plainly: PMN oxidative activity in whole blood. The assay is classed as cell-based. As for the experimental part:
PMN oxidative activity in whole blood. The following methods were adapted from Rothe, G. A. et al., J. Immunol. Meth., 138, 133-135 (1991). Heparinized whole blood (0.8 ml) was incubated (37°; 30 min) with adenosine deaminase (ADA, 1 U/ml), catalase (14,000 U/ml), ±dihydrorhodamine 123, ±WRC-0470 (3-300 nM), ±rolipram (300 nM) and ±TNFα (10 U/ml). The primed blood samples were stimulated with fMLP (15 min), then iced, the red blood cells lysed with FACS lysing solution (Becton-Dickinson, San Jose, Calif.), washed and the leukocytes resuspended in phosphate-buffered saline (PBS). These samples containing mixed leukocytes were gated for neutrophils by forward and side scatter and the fluorescence of 10,000 neutrophils measured in the FL1 channel of a FACScan (Beckton-Dickinson) fluorescence-activated cell sorter.

The subject of a further assay is adherent human monocytes. The experiment in a line: Production of TNFα by purified human adherent monocytes. It is filed as cell-based. The procedure:
Production of TNFα by purified human adherent monocytes. A monocyte rich monolayer (>95% monocytes) was prepared by incubating 1 ml of the mononuclear leukocyte fraction (5×10^5/ml) from a Ficoll-Hypaque separation in wells of a 24 well tissue culture plate (1 hr; 37° C.; 5% CO2). […] The samples were incubated for 4 hr (37° C.; 5% CO2) and the supernatants harvested. Any suspended cells were removed by centrifugation and the cell-free samples frozen (−70° C.). TNFα was assayed in the cell-free supernatants by an ELISA kit (Cistron Biotechnology, Pine Brook, N.J.).

The test system of the next assay is Adult wistar rats. Put plainly: Rat model of inflammation (bacterial meningitis): CSF WBC pleocytosis and blood-brain barrier permeability. The assay is classed as in vivo. As for the experimental part:
Effects of WRC-0470 and rolipram on the extravasation of white blood cells in a rat model of inflammation. Adult wistar rats (approximately 200 g) were anesthetized with intermuscular injections of ketamine and xylazine. Bacteria meningitis (BM) was introduced via intracistemal inoculation of either E. coli strain 026:B6LPS (200 ng), cytokines (IL-1 and TNFα, or LPS plus cytokines). The animals were then infused with rolipram and/or […] over the duration of the experiment using a Harvard pump. CSF (cerebrospinal fluid) and blood was then sampled at 4 h post-inoculation and alterations in BBBP (blood-brain barrier permeability) and WBC (white blood cell) counts were determined. CSF and WBC concentrations were determined with standard hemacytometer methods. For assessment of % BBBP, rats were given an intravenous injection of 5 μCi 125I-labeled bovine serum albumin concomitant with intracistemal inoculation. Equal samples of CSF and blood were read simultaneously in a gamma counter and after subtraction of background radioactivity, % BBBP was calculated by the following formula: % BBBP=(cpm CSF/cpm blood)×100. All statistical tests were performed using Instat biostatistical software to compare the post-inoculation samples of experimental rats with the control rats. The statistical tests used to generate p-values were Student's t-test and ANOVA.

As to `CCNC(=O)[C@H]1O[C@@H](n2cnc3c(N)nc(NCCc4ccc(CCC(=O)O)cc4)nc32)[C@H](O)[C@@H]1O` [CGS21680], the “TNF-stimulated PMN adherence” value in the assay on TNFα-stimulated PMN (30 nM, in the presence of ADA, TNF control 38%, p=0.004) stood at 30 % adhered.

Turning to `Nc1nc(OCCc2ccc3ccccc3c2)nc2c1ncn2[C@@H]1O[C@H](CO)[C@@H](O)[C@H]1O` [WRC-0018], the “superoxide release of TNFα-stimulated adherent PMN” value (from here on “superoxide release”) in assay [1] is “synergistically decreased superoxide release”.

Regarding `Cc1ccc(CCOc2nc(N)c3ncn([C@@H]4O[C@H](CO)[C@@H](O)[C@H]4O)c3n2)cc1` [WRC-0090], the “superoxide release” value in assay [1] is listed as “synergistically decreased superoxide release”.

Take `Nc1nc(N/N=C/C2CCCCC2)nc2c1ncn2[C@@H]1O[C@H](CO)[C@@H](O)[C@H]1O` [WRC-0470]: the “superoxide release” value in assay [1] is on record as “synergistically decreased superoxide release”. The “rank of activity among the four A2A agonists, adherent PMN oxidative activity” value in assay [1] (in the presence of rolipram) is “most active”. Also, the “decrease of TNFα-stimulated adherent neutrophil degranulation” value in assay [2] was 67%. The “neutrophil oxidative activity in whole blood” value in assay [3] (30-300 nM with rolipram 300 nM, fMLP or TNFα then fMLP) is on record as “decreased neutrophil oxidative activity synergistically”. For the same molecule, the “oxidative activity of TNFα-primed fMLP-stimulated neutrophils in whole blood” value in assay [3] (FIG. 6) is recorded as “decreased oxidative activity”. In addition, the “endotoxin-stimulated adherent monocyte production of TNFα” value in the assay on adherent human monocytes (±rolipram, P<0.050, FIGS. 7A and 7B) is on record as “decreased”. For the same molecule, the “blood-brain barrier permeability (% BBBP)” value is reported as “returned to control” in the assay with Adult wistar rats (1.2 μg/kg/hr, rebound effect) and “significant response” in the assay on Adult wistar rats (0.01-0.015 μg/kg/hr, p<0.05 as compared to control, FIG. 9). For the same molecule, the “WBC migrated into the sub-arachnoid space (CSF WBC)” value in the assay with Adult wistar rats (WRC-0470 0.1 μg/kg/hr in combination with rolipram 0.001 μg/kg/hr, FIG. 11) is on record as 200±70 WBC/μl; with Adult wistar rats (WRC-0470 alone (0.1 μg/kg/hr), p<0.050 vs combination) it was 600±308 WBCs/μl. The “CSF WBC pleocytosis” value in the assay with Adult wistar rats (infusion 0.005-1.2 μg/kg/hr, p<0.05 as compared to control, FIG. 8) is reported as “inhibited pleocytosis”.

As for `Nc1nc(NCCc2ccc(O)cc2)nc2nc(-c3ccco3)nn12` [ZM241385, 4-(2-[7-amino-2-(2-furyl)[1,2,4]-triazolo[2,3a]-[1,3,5]trazinyl-amino]ethyl)-phenol, reference compound], the “antagonism of the effect of WRC-0470 (300 nM) combined with rolipram (300 nM) on TNFα release from monocytes” value with adherent human monocytes (ZM241385 50 nM, p=0.020, FIG. 7B) is reported as “significantly inhibited the effect of WRC-0470”.

In the case of `Nc1ncnc2c1ncn2[C@@H]1O[C@H](CO)[C@@H](O)[C@H]1O` [adenosine], the “TNF-stimulated PMN adherence” value in the assay on TNFα-stimulated PMN (100 nM, p=0.009 compared to TNF in the presence of ADA) was 28 % adhered.

For the molecule `COc1ccc(C2CNC(=O)C2)cc1OC1CCCC1` (centres unmarked) [rolipram, 4-(3-cyclopentyloxy-4-methoxyphenyl)-2-pyrrolidone, reference compound], the “alterations of BBBP” value is given as “no significant effect” in the assay on Adult wistar rats (0.002 μg/kg/hr) and “significant inhibition” in the assay on Adult wistar rats (0.01 or 0.005 μg/kg/hr, p<0.05). Also, the “inhibition of CSF pleocytosis” value with Adult wistar rats (0.01 μg/kg/hr, p<0.05, FIG. 10) worked out at 99%. For the same molecule, in the assay with Adult wistar rats (rolipram alone (0.001 μg/kg/hr), p<0.050 vs combination), the “WBC migrated into the sub-arachnoid space (CSF WBC)” value is given as 1,670±1,273 WBC/μl.

(Values after patent publication US6514949B1, “Method compositions for treating the inflammatory response” (University of Virginia Patent Foundation, priority 1994, dated 2003).)
